Biological target: T1, androgen receptor (AR-LBD) (Rattus norvegicus, UniProt P15207)
T1 construct: 5 μL of 2×AR-LBD/Fluoromone AL Red Complex contained in the kit; purchased Invitrogen
T1 sequence (P15207 651-882 limits assumed): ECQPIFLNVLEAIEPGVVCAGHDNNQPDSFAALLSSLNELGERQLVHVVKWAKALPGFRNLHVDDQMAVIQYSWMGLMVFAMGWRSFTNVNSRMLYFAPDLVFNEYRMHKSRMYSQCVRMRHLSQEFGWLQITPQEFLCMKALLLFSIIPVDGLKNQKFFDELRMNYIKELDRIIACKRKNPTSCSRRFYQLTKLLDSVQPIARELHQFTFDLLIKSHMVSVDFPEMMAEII
Test: Evaluation of androgen receptor affinity (PolarScreen Androgen Receptor Competitor Assay Kit, Red; fluorescence polarization)
Conditions: 22° C. for 5 hours, relative to binding rate of 1 μM DHT, read-out: AR affinity (pEC50) (converted)
Outline: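 Fluorescence polarization competition assay: compound was incubated in duplicate with the kit's AR-LBD/Fluoromone AL Red complex for 5 h at 22 °C. Binding was expressed relative to 1 μM DHT, and pEC50 was derived by 4-parameter fit.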

## Cc1nc(CN(c2ccc(C#N)cc2)c2nc(C(=O)NS(C)(=O)=O)c(C)o2)cs1 [Compound 619, 2-[4-cyano-N-[(2-methylthiazol-4-yl)methyl]anilino]-5-methyl-N-methylsulfonyl-oxazole-4-carboxamide]
  EC50: > 2 µM

## Cc1sc(N(c2ccc(C#N)cc2F)[C@@H](CO)c2ccccc2)nc1C(=O)NS(C)(=O)=O [Compound 667, 2-(4-cyano-2-fluoro-N-[(1R)-2-hydroxy-1-phenyl-ethyl]anilino)-5-methyl-N-methylsulfonyl-thiazole-4-carboxamide]
  EC50: > 2 µM

## Cc1sc(N(Cc2ccccc2)CC2CCCCC2)nc1C(=O)NS(C)(=O)=O [Compound 668, 2-[benzyl(cyclohexylmethyl)amino]-5-methyl-N-methylsulfonyl-thiazole-4-carboxamide]
  EC50: > 2 µM

## Cc1sc(N(Cc2ccccc2)C2CCCC2)nc1C(=O)NS(C)(=O)=O [Compound 669, 2-[benzyl(cyclopentyl)amino]-5-methyl-N-methylsulfonyl-thiazole-4-carboxamide]
  EC50: 0.631 µM

## Cc1sc(N(Cc2ccccc2)C2CCCCC2)nc1C(=O)NS(C)(=O)=O [Compound 670, 2-[benzyl(cyclohexyl)amino]-5-methyl-N-methylsulfonyl-thiazole-4-carboxamide]
  EC50: > 2 µM

## Cc1sc(N(Cc2ccccc2)C(C)Cc2ccccc2)nc1C(=O)NS(C)(=O)=O (stereo not drawn) [Compound 674, 2-[benzyl-(1-methyl-2-phenyl-ethyl)amino]-5-methyl-N-methylsulfonyl-thiazole-4-carboxamide]
  EC50: > 2 µM

## Cc1sc(N(Cc2ccccc2)Cc2csc3cc(C#N)ccc23)nc1C(=O)NS(C)(=O)=O [Compound 675, 2-[benzyl-[(6-cyanobenzothiophen-3-yl)methyl]amino]-5-methyl-N-methylsulfonyl-thiazole-4-carboxamide]
  EC50: > 2 µM

## Cc1sc(N(Cc2ccccc2)Cc2csc3cc(C(F)(F)F)ccc23)nc1C(=O)NS(C)(=O)=O [Compound 676, 2-[benzyl-[[6-(trifluoromethyl)benzothiophen-3-yl]methyl]amino]-5-methyl-N-methylsulfonyl-thiazole-4-carboxamide]
  EC50: > 2 µM

## Cc1sc(N(CCn2nccn2)Cc2ccccc2)nc1C(=O)NS(C)(=O)=O [Compound 679, 2-[benzyl-[2-(triazol-2-yl)ethyl]amino]-5-methyl-N-methylsulfonyl-thiazole-4-carboxamide]
  EC50: > 2 µM

## Cc1sc(N(CCn2cncn2)Cc2ccccc2)nc1C(=O)NS(C)(=O)=O [Compound 680, 2-[benzyl-[2-(1,2,4-triazol-1-yl)ethyl]amino]-5-methyl-N-methylsulfonyl-thiazole-4-carboxamide]
  EC50: > 2 µM

## Cc1ccn(CCN(Cc2ccccc2)c2nc(C(=O)NS(C)(=O)=O)c(C)s2)n1 [Compound 681, 2-[benzyl-[2-(3-methylpyrazol-1-yl)ethyl]amino]-5-methyl-N-methylsulfonyl-thiazole-4-carboxamide]
  EC50: > 2 µM

## Cc1sc(N(CCn2nccc2C)Cc2ccccc2)nc1C(=O)NS(C)(=O)=O [Compound 682, 2-[benzyl-[2-(5-methylpyrazol-1-yl)ethyl]amino]-5-methyl-N-methylsulfonyl-thiazole-4-carboxamide]
  EC50: > 2 µM

## Cc1sc(N(CCC(C)(C)C)Cc2ccccc2)nc1C(=O)NS(C)(=O)=O [Compound 686, 2-[benzyl(3,3-dimethylbutyl)amino]-5-methyl-N-methylsulfonyl-thiazole-4-carboxamide]
  EC50: > 2 µM

## Cc1sc(N(CCC2CC2)Cc2ccccc2)nc1C(=O)NS(C)(=O)=O [Compound 687, 2-[benzyl(2-cyclopropylethyl)amino]-5-methyl-N-methylsulfonyl-thiazole-4-carboxamide]
  EC50: > 2 µM

## Cc1sc(N(CCn2cccn2)Cc2ccccc2)nc1C(=O)NS(C)(=O)=O [Compound 688, 2-[benzyl(2-pyrazol-1-ylethyl)amino]-5-methyl-N-methylsulfonyl-thiazole-4-carboxamide]
  EC50: > 2 µM

## Cc1cc(C)n(CCN(Cc2ccccc2)c2nc(C(=O)NS(C)(=O)=O)c(C)s2)n1 [Compound 689, 2-[benzyl-[2-(3,5-dimethylpyrazol-1-yl)ethyl]amino]-5-methyl-N-methylsulfonyl-thiazole-4-carboxamide]
  EC50: > 2 µM

## Cc1sc(N(CCc2ccc3nccnc3c2)Cc2ccccc2)nc1C(=O)NS(C)(=O)=O [Compound 690, 2-[benzyl(2-quinoxalin-6-ylethyl)amino]-5-methyl-N-methylsulfonyl-thiazole-4-carboxamide]
  EC50: 1 µM

## Cc1noc(C)c1CCN(Cc1ccccc1)c1nc(C(=O)NS(C)(=O)=O)c(C)s1 [Compound 691, 2-[benzyl-[2-(3,5-dimethylisoxazol-4-yl)ethyl]amino]-5-methyl-N-methylsulfonyl-thiazole-4-carboxamide]
  EC50: > 2 µM

## CCS(=O)(=O)NC(=O)c1nc(N(CCc2ccc(Cl)cc2)CC2CCCCC2)sc1C [Compound 698, 2-[2-(4-chlorophenyl)ethyl-(cyclohexylmethyl)amino]-N-ethylsulfonyl-5-methyl-thiazole-4-carboxamide]
  EC50: 0.794 µM

## Cc1sc(N(CCc2ccc(Cl)cc2)CC2CCCCC2)nc1C(=O)NS(=O)(=O)C(F)(F)F [Compound 700, 2-[2-(4-chlorophenyl)ethyl-(cyclohexylmethyl)amino]-5-methyl-N-(trifluoromethylsulfonyl)thiazole-4-carboxamide]
  EC50: > 2 µM

## Cc1sc(N(CCC2CCNCC2)Cc2ccccc2)nc1C(=O)NS(C)(=O)=O [Compound 705, 2-[benzyl-[2-(4-piperidyl)ethyl]amino]-5-methyl-N-methylsulfonyl-thiazole-4-carboxamide]
  EC50: > 2 µM

## Cc1nc(CCN(Cc2ccccc2)c2nc(C(=O)NS(C)(=O)=O)c(C)s2)cs1 [Compound 706, 2-[benzyl-[2-(2-methylthiazol-4-yl)ethyl]amino]-5-methyl-N-methylsulfonyl-thiazole-4-carboxamide]
  EC50: > 2 µM

## Cc1sc(N(CCc2coc3ccccc23)Cc2ccccc2)nc1C(=O)NS(C)(=O)=O [Compound 707, 2-[2-(benzofuran-3-yl)ethyl-benzyl-amino]-5-methyl-N-methylsulfonyl-thiazole-4-carboxamide]
  EC50: > 2 µM

## Cc1sc(N(CCC(F)(F)F)Cc2ccccc2)nc1C(=O)NS(C)(=O)=O [Compound 711, 2-[benzyl(3,3,3-trifluoropropyl)amino]-5-methyl-N-methylsulfonyl-thiazole-4-carboxamide]
  EC50: > 2 µM

## Cc1sc(N(CCC(O)CO)Cc2ccccc2)nc1C(=O)NS(C)(=O)=O (stereo not drawn) [Compound 712, 2-[benzyl(3,4-dihydroxybutyl)amino]-5-methyl-N-methylsulfonyl-thiazole-4-carboxamide]
  EC50: > 2 µM

## Cc1sc(N(CCc2ccc(C#N)cc2)CC2CCCCC2)nc1C(=O)NS(=O)(=O)C1CC1 [Compound 718, 2-[2-(4-cyanophenyl)ethyl-(cyclohexylmethyl)amino]-N-cyclopropylsulfonyl-5-methyl-thiazole-4-carboxamide]
  EC50: > 2 µM

## Cc1sc(N(CCc2ccc(C#N)cc2)CC2CCCCC2)nc1C(=O)NS(=O)(=O)C(F)(F)F [Compound 719, 2-[2-(4-cyanophenyl)ethyl-(cyclohexylmethyl)amino]-5-methyl-N-(trifluoromethylsulfonyl)thiazole-4-carboxamide]
  EC50: > 2 µM

Reference: US10689354B2, “Aminoazole derivative” (Teijin Pharma Limited, priority 2015, dated 2020)
